Results from US10774132B2, “Ultralong complementarity determining regions and uses thereof” (THE SCRIPPS RESEARCH INSTITUTE, priority 2012, dated 2020).

Columns and labels:
[1] = system: Mouse NFS-60 cells; test: Proliferation assay on mouse NFS-60 cells (AlamarBlue); assay type: cell-based; settings: 72 hours
Protocol: Mouse NFS-60 cells were obtained from American Type Culture Collection (ATCC), VA, and cultured in RPMI-1640 medium supplemented with 10% fetal bovine serum (FBS), 0.05 mM 2-mercapoethanol and 62 ng/ml human macrophage colony stimulating factor (M-CSF). For proliferation assay, mouse NFS-60 cells were washed three times with RPMI-1640 medium and resuspended in RPMI-1640 medium with 10% FBS and 0.05 mM 2-mercapoethanol at a density of 1.5×10^5 cells/ml. In 96-well plates, 100 μl of cell suspension was added into each well, followed by the addition of varied concentrations of bGCSF, BLV1H12 antibody, and the immunoglobulin constructs described herein, Equal volume of PBS buffer was added into the control wells. The plates were incubated at 37° C. in a 5% CO2 incubator for 72 hours. Cells were then treated with AlamarBlue (Invitrogen) ( 1/10 volume of cell suspension) for 4 hours at 37° C. Fluorescence at 595 nm for each well was read to indicate the cell viability.

[2] = system: Human mPB CD34+ cells; test: Proliferative activity on human granulocyte progenitors (flow cytometry); assay type: cell-based; settings: 7 days, flow cytometry
Protocol: Human mPB CD34^+ cells were purchased from AllCells. Cells were resuspended in HSC expansion medium (StemSpan SFEM, StemCell Technologies) supplemented with 1× antibiotics and the following recombinant human cytokines: thrombopoietin, IL6, Flt3 ligand, and stem cell factor (100 ng/mL, R & D Systems), then plated in 96-well plates (1000 cells per well), with varied concentrations of BLV1H12-bGCSF fusion antibodies. Cells were cultured for 7 days at 37° C. in a 5% CO2 incubator, then analyzed by flow cytometry to measure cell number and expression of CD45ra and CD41. Cells were stained in staining medium (HBSS supplemented with 2% FBS and 2 mM EDTA) at 4° C. for 1 h with PECy7 anti-CD45ra and eFluor 450 anti-CD41 (eBiosciences), then washed with staining medium and analyzed. Multicolor analysis for cell phenotyping was performed on a LSR II flow cytometer (Becton Dickinson). FIGS. 10A-10E and Tables 9-10 show the human granulocyte progenitor cell proliferative activities of the Ab-GCSF fusion antibodies.

[3] = system: mice neutrophils; test: Neutrophil counts in mice, 10th day after injection; assay type: in vivo; settings: blood stained and counted at the 10th day post-injection
Protocol: On the 10th day after injection of BLV1H12-bGCSF fusion antibodies into mice for PK study, blood samples were drawn from the mice and stained using the Diff Quick Staining Kit (Thermo Fisher Scientific, IL). Neutrophils and white blood cells were counted under microscope and the percentages of neutrophils were analyzed. FIGS. 12A-12B and Table 12 show proliferative activities of BLV1H12-bGCSF fusion antibodies on mice neutrophils that are blood stained and counted at the 10th day post-injection.

[4] = Pharmacokinetics in mice (ELISA of blood samples); assay type: in vivo; settings: 70 μg injected, BALB/c mice
Protocol: For PK study in mice, 70 μg of the immunoglobulin constructs described herein were injected into 3 BALB/c mice per group. Blood samples were drawn from time 0 to 14 days with extended intervals and analyzed by ELISA using anti-human IgG Fc antibody with horseradish peroxidase (HRP) labeled (KPL) and anti-6×His antibody (“6×His” disclosed as SEQ ID NO: 511) with HRP labeled (Clontech). Data were normalized by taking maximal concentration at the first time point (30 min).

[5] = target: T1, GLP-1 receptor (GLP-1R) (Homo sapiens, UniProt P43220); test: GLP-1R activation, cAMP responsive luciferase reporter in HEK293 cells; assay type: cell-based; settings: HEK293 cells expressing GLP-1R, 24 h
T1 construct: expressed in transfected cells; host or cells: HEK293 (with cAMP responsive luciferase reporter gene)
T1 sequence (P43220 24-463, species assumed): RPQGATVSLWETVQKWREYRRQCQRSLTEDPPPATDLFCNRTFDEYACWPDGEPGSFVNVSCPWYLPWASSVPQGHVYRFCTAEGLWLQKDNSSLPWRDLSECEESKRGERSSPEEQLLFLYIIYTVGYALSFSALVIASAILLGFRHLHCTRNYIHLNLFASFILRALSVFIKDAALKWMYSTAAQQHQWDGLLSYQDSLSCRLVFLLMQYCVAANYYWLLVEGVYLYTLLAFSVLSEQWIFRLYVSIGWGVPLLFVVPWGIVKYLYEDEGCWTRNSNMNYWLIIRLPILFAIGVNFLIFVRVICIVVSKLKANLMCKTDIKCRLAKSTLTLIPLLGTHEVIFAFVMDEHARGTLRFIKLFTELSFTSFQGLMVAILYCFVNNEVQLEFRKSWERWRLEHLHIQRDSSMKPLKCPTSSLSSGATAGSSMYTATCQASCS
Protocol: HEK293 cells expressing surface GLP-1R and cAMP responsive luciferase reporter gene were seeded in 384 well plates at a density of 5000 cells per well. […] Subsequently, luciferase assay was performed using One-Glo luciferase reagent according manufacture's instruction (Promega).
HEK293 cells expressing surface GLP-1R and cAMP responsive luciferase reporter gene were seeded in 384 well plates at a density of 5000 cells per well. After 24 h incubation at 37° C. with 5% CO2, cells were treated with various concentrations of peptides and BLV1H12-GLP-1 clip fusion proteins and incubated for another 24 h. Subsequently, luciferase assay was performed using One-Glo luciferase reagent according manufacture's instruction (Promega).

Substance: Ab-bGCSF L0: bovine G-CSF replacing the knob domain of BLV1H12 CDR3H, no linker (n=0), SEQ ID NO: 4
- F.I. (fluorescence at 595 nm, AlamarBlue, cell viability) ([1]; 0.09876 ng/mL): 1328
- F.I. (fluorescence at 595 nm, AlamarBlue, cell viability) ([1]; 0.29627 ng/mL): 1436
- F.I. (fluorescence at 595 nm, AlamarBlue, cell viability) ([1]; 0.88881 ng/mL): 1734.765
- F.I. (fluorescence at 595 nm, AlamarBlue, cell viability) ([1]; 2.66642 ng/mL): 2189
- F.I. (fluorescence at 595 nm, AlamarBlue, cell viability) ([1]; 7.99927 ng/mL): 2680
- F.I. (fluorescence at 595 nm, AlamarBlue, cell viability) ([1]; 23.9978 ng/mL): 2899
- F.I. (fluorescence at 595 nm, AlamarBlue, cell viability) ([1]; 71.9934 ng/mL): 2921
- F.I. (fluorescence at 595 nm, AlamarBlue, cell viability) ([1]; 215.9802 ng/mL): 3416
- Number of CD45RA-CD41- ([2]; 0.14225 ng/mL): 2601
- Number of CD45RA-CD41- ([2]; 0.42676 ng/mL): 2253
- Number of CD45RA-CD41- ([2]; 3.84088 ng/mL): 4399
- Number of CD45RA-CD41- ([2]; 11.52263 ng/mL): 7262
- Number of CD45RA-CD41- ([2]; 34.5679 ng/mL): 9902
- Number of CD45RA-CD41- ([2]; 103.7037 ng/mL): 11500
- Number of CD45RA-CD41- ([2]; 311.11111 ng/mL): 11500
- Number of CD45RA-CD41- ([2]; 933.33333 ng/mL): 11900
- Number of CD45RA-CD41- ([2]; 2800 ng/mL): 12100
- Percentage of Neutrophil [3]: 25.05
- Percentage (blood level normalized to first time point, 30 min) ([4]; day 0.021): 100.00%
- Percentage (blood level normalized to first time point, 30 min) ([4]; day 0.042): 91.12%
- Percentage (blood level normalized to first time point, 30 min) ([4]; day 0.083): 91.24%
- Percentage (blood level normalized to first time point, 30 min) ([4]; day 0.125): 91.56%
- Percentage (blood level normalized to first time point, 30 min) ([4]; day 0.250): 61.22%
- Percentage (blood level normalized to first time point, 30 min) ([4]; day 1.000): 44.22%
- Percentage (blood level normalized to first time point, 30 min) ([4]; day 2.000): 36.36%
- Percentage (blood level normalized to first time point, 30 min) ([4]; day 3.000): 27.38%
- Percentage (blood level normalized to first time point, 30 min) ([4]; day 8.000): 11.53%
- Percentage (blood level normalized to first time point, 30 min) ([4]; day 10.000): 12.44%
- Percentage (blood level normalized to first time point, 30 min) ([4]; day 14.000): 14.35%

Substance: Ab-bGCSF L1: bovine G-CSF replacing the knob domain of BLV1H12 CDR3H with GGGGS linkers on both ends (n=1), SEQ ID NO: 5
- F.I. (fluorescence at 595 nm, AlamarBlue, cell viability) ([1]; 0.09808 ng/mL): 1412.387
- F.I. (fluorescence at 595 nm, AlamarBlue, cell viability) ([1]; 0.29424 ng/mL): 1654.776
- F.I. (fluorescence at 595 nm, AlamarBlue, cell viability) ([1]; 0.88272 ng/mL): 2082.718
- F.I. (fluorescence at 595 nm, AlamarBlue, cell viability) ([1]; 2.64816 ng/mL): 2550.674
- F.I. (fluorescence at 595 nm, AlamarBlue, cell viability) ([1]; 7.94449 ng/mL): 2997.807
- F.I. (fluorescence at 595 nm, AlamarBlue, cell viability) ([1]; 23.83346 ng/mL): 3277.812
- F.I. (fluorescence at 595 nm, AlamarBlue, cell viability) ([1]; 71.50039 ng/mL): 3308.383
- F.I. (fluorescence at 595 nm, AlamarBlue, cell viability) ([1]; 214.50117 ng/mL): 3868.075
- Number of CD45RA-CD41- ([2]; 0.30483 ng/mL): 4070
- Number of CD45RA-CD41- ([2]; 0.91449 ng/mL): 3601
- Number of CD45RA-CD41- ([2]; 2.74348 ng/mL): 4303
- Number of CD45RA-CD41- ([2]; 8.23045 ng/mL): 6404
- Number of CD45RA-CD41- ([2]; 24.69136 ng/mL): 9122
- Number of CD45RA-CD41- ([2]; 74.07407 ng/mL): 11200
- Number of CD45RA-CD41- ([2]; 222.22222 ng/mL): 11000
- Number of CD45RA-CD41- ([2]; 666.66667 ng/mL): 11400
- Number of CD45RA-CD41- ([2]; 2000 ng/mL): 11400
- Number of CD45RA-CD41- ([2]; 6000 ng/mL): 13200
- Percentage of Neutrophil [3]: 25.32
- Percentage (blood level normalized to first time point, 30 min) ([4]; day 0.021): 100.00%
- Percentage (blood level normalized to first time point, 30 min) ([4]; day 0.042): 102.12%
- Percentage (blood level normalized to first time point, 30 min) ([4]; day 0.083): 104.03%
- Percentage (blood level normalized to first time point, 30 min) ([4]; day 0.125): 101.71%
- Percentage (blood level normalized to first time point, 30 min) ([4]; day 0.250): 93.90%
- Percentage (blood level normalized to first time point, 30 min) ([4]; day 1.000): 59.26%
- Percentage (blood level normalized to first time point, 30 min) ([4]; day 2.000): 56.66%
- Percentage (blood level normalized to first time point, 30 min) ([4]; day 3.000): 39.09%
- Percentage (blood level normalized to first time point, 30 min) ([4]; day 8.000): 22.21%
- Percentage (blood level normalized to first time point, 30 min) ([4]; day 10.000): 21.15%
- Percentage (blood level normalized to first time point, 30 min) ([4]; day 14.000): 21.41%

Substance: Ab-Ex4: Exendin-4 with Factor Xa site and GGGGS linkers grafted into CDR3H of BLV1H12
- RLU (cAMP responsive luciferase reporter) ([5]; 1.26953 nM): 6120 RLU
- RLU (cAMP responsive luciferase reporter) ([5]; 2.53906 nM): 6360 RLU
- RLU (cAMP responsive luciferase reporter) ([5]; 5.07813 nM): 8500 RLU
- RLU (cAMP responsive luciferase reporter) ([5]; 10.15625 nM): 10420 RLU
- RLU (cAMP responsive luciferase reporter) ([5]; 20.3125 nM): 19340 RLU
- RLU (cAMP responsive luciferase reporter) ([5]; 40.625 nM): 27960 RLU
- RLU (cAMP responsive luciferase reporter) ([5]; 81.25 nM): 54800 RLU
- RLU (cAMP responsive luciferase reporter) ([5]; 162.5 nM): 90660 RLU
- RLU (cAMP responsive luciferase reporter) ([5]; 325 nM): 117900 RLU
- RLU (cAMP responsive luciferase reporter) ([5]; 650 nM): 134760 RLU
- RLU (cAMP responsive luciferase reporter) ([5]; 1300 nM): 159660 RLU
